Assay results as given in BindingDB's records for doi:10.3109/14756366.2010.550890 (Jamia Hamdard University, 2011).

How the values were obtained:
[1] = molecular target: T1, Prostaglandin G/H synthase 1 (Ovis aries, UniProt P05979); test: COX Inhibition Assay; settings: pH 8; 37 °C
T1 sequence (P05979 whole entry): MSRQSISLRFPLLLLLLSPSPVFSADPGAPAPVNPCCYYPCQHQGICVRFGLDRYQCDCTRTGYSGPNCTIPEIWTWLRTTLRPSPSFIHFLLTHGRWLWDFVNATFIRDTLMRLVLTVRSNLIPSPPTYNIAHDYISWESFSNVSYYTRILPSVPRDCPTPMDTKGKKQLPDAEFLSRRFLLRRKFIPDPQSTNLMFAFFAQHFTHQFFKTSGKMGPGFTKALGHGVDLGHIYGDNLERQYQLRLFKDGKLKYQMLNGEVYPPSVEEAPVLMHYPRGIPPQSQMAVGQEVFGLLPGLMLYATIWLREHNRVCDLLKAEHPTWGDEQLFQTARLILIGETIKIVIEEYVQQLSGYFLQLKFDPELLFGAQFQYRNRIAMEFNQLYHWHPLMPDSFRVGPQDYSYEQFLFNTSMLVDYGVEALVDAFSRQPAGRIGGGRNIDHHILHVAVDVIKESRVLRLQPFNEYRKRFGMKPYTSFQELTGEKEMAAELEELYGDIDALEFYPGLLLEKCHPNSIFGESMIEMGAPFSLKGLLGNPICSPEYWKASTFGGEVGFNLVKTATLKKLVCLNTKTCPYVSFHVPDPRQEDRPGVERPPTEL
Protocol: (§1) Stock solutions of test compounds were dissolved in a minimum volume of dimethyl sulphoxide (DMSO) toobtain 0.001, 0.01, 0.1, 1, 10, 100, and 500 μM in a final volume of 1 mL. In brief, haematin reconstituted purified COX-1 and COX-2 enzymes in a reaction buffer containing Tris-hydrochloric acid (HCl) (0.1 M, pH 8.0), 5 mM ethylenediaminetetraacetic acid (EDTA), and 2 mM phenol were pre-incubated at room temperature for 1 h with test compounds followed by the addition of AA (100 μM)for 2 min at 37°C. Reactions were terminated by adding 50 μL of 1 M HCl followed by the addition of 100 μL of stannous chloride.

[2] = molecular target: T2, Prostaglandin G/H synthase 2 (Ovis aries, UniProt P79208); test: COX Inhibition Assay; settings: pH 8; 37 °C
T2 sequence (P79208 whole entry): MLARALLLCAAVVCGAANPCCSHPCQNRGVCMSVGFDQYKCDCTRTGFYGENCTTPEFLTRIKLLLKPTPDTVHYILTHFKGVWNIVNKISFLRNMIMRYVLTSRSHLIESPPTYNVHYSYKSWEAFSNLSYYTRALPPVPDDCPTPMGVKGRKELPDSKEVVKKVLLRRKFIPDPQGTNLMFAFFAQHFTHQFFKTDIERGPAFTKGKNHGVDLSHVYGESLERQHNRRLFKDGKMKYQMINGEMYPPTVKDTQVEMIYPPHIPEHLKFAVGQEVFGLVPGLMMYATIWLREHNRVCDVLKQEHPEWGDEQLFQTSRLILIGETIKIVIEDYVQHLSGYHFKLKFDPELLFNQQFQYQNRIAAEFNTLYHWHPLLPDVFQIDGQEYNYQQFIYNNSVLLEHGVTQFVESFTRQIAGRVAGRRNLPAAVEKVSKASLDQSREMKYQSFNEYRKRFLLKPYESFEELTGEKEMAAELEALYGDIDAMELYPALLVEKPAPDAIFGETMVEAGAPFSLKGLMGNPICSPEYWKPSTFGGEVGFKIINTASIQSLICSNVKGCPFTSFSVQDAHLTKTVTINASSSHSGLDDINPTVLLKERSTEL
Protocol: as §1

SMILES	IC50 [1]	IC50 [2]
O=C(Nc1nnc(-c2cc3ccccc3oc2=O)o1)c1ccc(Cl)cc1 [4-Chloro-N-[5-(2-oxo-2H-chromen-3-yl)-[1,3,4]oxadiazol-2-yl]-benzamide (8b)]	> 100 µM	> 100 µM
Cc1ccc(-c2nnc(-c3cc4ccccc4oc3=O)o2)cc1 [3-(5-p-Tolyl-[1,3,4]oxadiazol-2-yl)-chromen-2-one (4c)]	> 100 µM	1.18 µM
O=c1oc2ccccc2cc1-c1nnc(-c2ccccc2)o1 [3-(5-Phenyl-[1,3,4]oxadiazol-2-yl)-chromen-2-one (4a)]	< 100 µM	8.7 µM
O=c1oc2ccccc2cc1-c1nnc(-c2ccc(Cl)cc2Cl)o1 [3-[5-(2,4-Dichloro-phenyl)-[1,3,4]oxadiazol-2-yl]-chromen-2-one (4e)]	41.6 µM	0.4 µM
Cc1ccccc1Nc1nnc(-c2cc3ccccc3oc2=O)o1 [3-(5-o-Tolylamino-[1,3,4]oxadiazol-2-yl)-chromen-2-one (6e)]	> 100 µM	36.6 µM
O=c1oc2ccccc2cc1-c1nnc(-c2ccc(Cl)cc2)o1 [3-[5-(4-Chloro-phenyl)-[1,3,4]oxadiazol-2-yl]-chromen-2-one (4b)]	35 µM	1.2 µM
O=c1oc2ccccc2cc1-c1nnc(Nc2ccc(Cl)cc2)o1 [3-[5-(4-Chloro-phenylamino)-[1,3,4]oxadiazol-2-yl]-chromen-2-one (6b)]	> 100 µM	> 100 µM
